According to patent US20100137391A1, “Histamine H3 Agonist for use as Therapeutic Agent for a Lipid/Glucose Metabolic Disorder” (priority 2005, published 2010):

Experiments:
wild type mice [1] = assay: Measurement of amount of food intake (and body weight), wild type mice; type: in vivo
Excerpt: (§1) Histamine H3 receptor knockout mice (hereinafter referred to as “H3RKO mice”) were produced by the method of Takahashi et al. (J. Clin. Invest, Vol. 110, p. 1791, 2002). The obtained knockout mice were subjected to back crossing with C57BL/6J over 5 generations. Six- to nine-month-old male litters were used in an acute drug administration test. On the other hand, 18- to 20-month-old mice whose parents were H3RKO mice or wild type mice (N5 of C57BL/6J) were used in a chronic drug administration test.
(§2) All mice were individually bred at 25° C., and light and dark were controlled every 12 hours. During breeding, water and feed were freely given to the mice. As such feed, CE2 (CLEA Japan, Inc.) was given to thin mice, and medium high fat diet (Oriental Bio Service Co., Ltd.) was given to DIO mice.
(§3) The concentration of each compound was set at 5 ml/kg.
(§4) The amount of food intake was measured based on the weight of feed at 19:00 and 23:00.

H3RKO mice [2] = assay: Measurement of amount of food intake (and body weight), H3RKO mice; type: in vivo
Excerpt: as §1, §2, §3, §4

wild type mice [3] = tested on: wild type mice
Excerpt: as §1, §2, §3
(§5) Mice were divided into groups, depending on mean body weight and the amount of daily food intake before administration of the compound. The body weight and the amount of food intake were measured every day.
(§6) In the test using Thioperamide, mice were divided into 4 groups: a group in which a solvent was administered to C57BL/6J DiO mice at 9:00; a group in which 10 mpk Thioperamide was administered thereto at 9:00; a group in which a solvent was administered to C57BL/6J DiO mice at 17:00; and a group in which 10 mpk Thioperamide was administered thereto at 17:00. […] On the 10th day after the administration, such mice were left in a starvation state for 2 hours. Thereafter, blood was collected from the orbit of each mouse, and the glucose and insulin levels were measured.
(§7) A change in body weight was calculated by dividing a decrease in body weight by the body weight on day 0 at initiation of the test, and the calculated value was expressed as a percentage. The degree of obesity was measured using an NMR analyzer (Minispec; Bruker).

H3RKO mice [4] = assay: Anti-obesity test with Imetit, H3RKO mice; type: in vivo
Excerpt: as §1, §2, §3, §5, §6, §7

C57BL/6J mice = assay: Measurement of energy consumption (indirect calorimetry); type: in vivo; settings: Imetit 5 mpk and 20 mpk vs vehicle
Experimental: Energy consumption was measured using Indirect calorimetry (Columbus Instrument). That is to say, C57BL/6J mice were acclimatized in a test chamber overnight, and VO2 (oxygen consumption) and VCO2 […] were then measured for 1 minute every 10 minutes. Sample air was collected every 10 minutes. RQ (respiratory quotient) was calculated by dividing […]. The test was carried out from 9:00 to 17:00. During the test, mice were allowed to freely ingest feed and water.

C57BL/6J DiO mice = assay: Anti-obesity test with Thioperamide; type: in vivo; settings: 10 mpk Thioperamide at 9:00 or 17:00; FIG. 6
Experimental: as §2, §3, §5, §6, §7

[5] = Wild type, 10th day after administration, 2 hours starvation, blood
[6] = Wild type, Imetit twice a day, NMR analyzer
[7] = H3RKO, 10th day after administration, 2 hours starvation, blood
[8] = H3RKO, Imetit twice a day, NMR analyzer

Row | SMILES | change in body weight (wild type mice [1]; FIG. 3) | amount of food intake (wild type mice [1]; oral administration, vs solvent control mice, FIG. 1) | change in body weight (H3RKO mice [2]; FIG. 4) | amount of food intake (H3RKO mice [2]; oral administration, vs solvent control mice, FIG. 2) | abnormal glucose tolerance (wild type mice [3]) | Glucose (wild type mice [3]; [5]) | Insulin (wild type mice [3]; [5]) | Fat (%) (wild type mice [3]; [6]) | Lean body mass (%) (wild type mice [3]; [6]) | insulin concentration in blood (wild type mice [3]; together with fat-decreasing effect) | body weight-decreasing effect (H3RKO mice [4]; H3RKO mice, Imetit twice a day) | Glucose (H3RKO mice [4]; [7]) | Insulin (H3RKO mice [4]; [7]) | Fat (%) (H3RKO mice [4]; [8]) | Lean body mass (%) (H3RKO mice [4]; [8]) | VO2 (oxygen consumption) (C57BL/6J mice; FIG. 8, 11) | VCO2 (C57BL/6J mice; FIG. 9, 11) | RQ (respiratory quotient) (C57BL/6J mice; FIG. 10, 11) | body weight of fat mice (C57BL/6J DiO mice)
1 | N=C(N)SCCc1c[nH]cn1 [Imetit, carbamimidothioic acid 2-(1H-imidazol-4-yl)ethyl ester] | decreased depending on the number of doses | lower than that of control mice | such a change in body weight was not observed | such a decrease in the amount of food intake was not observed | improved | 164.1 ± 6.4 mg/dL | 4.7 ± 0.8 ng/mL | 39.2 ± 2.0 % | 58.3 ± 1.6 % | decreased | such effect was not observed in H3RKO mice | 166.7 ± 10.5 mg/dL | 4.7 ± 0.9 ng/mL | 46.3 ± 2.0% | 52.7 ± 1.4% | increases | increases | decrease | 
2 | S=C(NC1CCCCC1)N1CCC(c2cnc[nH]2)CC1 [Thioperamide] |  |  |  |  |  |  |  |  |  |  |  |  |  |  |  |  |  |  | tendency that the body weight of fat mice was increased
